According to patent US20210115104A1, “AMYLIN ANALOGUES” (Zealand Pharma A/S, priority 2015, published 2021):
pEC50: −log10 of the molar value. *1 amine or outer side, *2 acyl side, *3 side chain or, on linkers, in order; H or OH if unused. Where a SMILES comes first, the peptide text is derived from it. Bridges are numbered along the chain shown (N, C = ends). [ ]: non-standard residue; d: D form. The star is where a group is joined. C20 diacid = O=C(O)CCCCCCCCCCCCCCCCCCC(=O)*; γGlu = O=C(O)[C@H](CCC(=O)[*:2])N[*:1]; Hyp = O=C(O)[C@@H]1C[C@@H](O)CN1; NMeI = CC[C@H](C)[C@H](NC)C(=O)O; Sar = CNCC(=O)O

Tests used:
[1] = Assessment of physical stability (Thioflavin T fibrillation); type: physicochemical; parameters: key: FND = fibrillation not detected; FD = fibrillation detected; details: 1 mg/ml, 40° C., ThT; for Fibrillation pH 4.0 (Ac): 50 mM acetate buffer pH 4.0, 96 hours; for Fibrillation pH 7.0 (His): 50 mM histidine buffer pH 7.0, 96 hours; for Fibrillation pH 7.0 (Phos.): 50 mM phosphate buffer pH 7.0, 96 hours
Outline: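 1 mg/ml peptide with 40 μM ThT in 50 mM phosphate pH 7.0, 50 mM histidine pH 7.0 or 50 mM acetate pH 4.0, in triplicate. Fluorescence read every 10 min after 300 s agitation over 96 h at 40 °C. Lag-time (h) is the intersection of linear fits to stable and growth phases.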

[2] = biological target: T1, human calcitonin receptor (hCTR2) (Homo sapiens, UniProt P30988); experiment: hCTR2 cAMP assay (AlphaScreen) in COS7 cells; type: cell-based; details: cAMP induction, COS7 cells expressing hCTR2; Table 1; read-out: hCTR2 EC50
T1 construct: expressed in transfected cells
T1 sequence (P30988 25-474): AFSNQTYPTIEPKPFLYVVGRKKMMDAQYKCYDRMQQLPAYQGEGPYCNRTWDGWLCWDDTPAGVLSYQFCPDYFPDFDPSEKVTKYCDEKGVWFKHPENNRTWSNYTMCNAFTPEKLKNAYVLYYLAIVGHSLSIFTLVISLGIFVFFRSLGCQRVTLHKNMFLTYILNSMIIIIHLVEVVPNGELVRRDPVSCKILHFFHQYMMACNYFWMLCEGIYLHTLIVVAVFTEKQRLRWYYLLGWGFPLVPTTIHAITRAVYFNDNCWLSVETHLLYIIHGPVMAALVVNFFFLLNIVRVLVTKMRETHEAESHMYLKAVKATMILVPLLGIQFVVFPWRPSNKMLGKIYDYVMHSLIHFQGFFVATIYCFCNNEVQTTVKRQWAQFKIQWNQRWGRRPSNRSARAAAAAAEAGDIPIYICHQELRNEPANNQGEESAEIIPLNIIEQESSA
Outline: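 Stable hCTR2 clone in RAMP-naïve COS7 cells stimulated 15 min at 37 °C with increasing peptide concentrations in Tyrode buffer pH 7.4 containing IBMX and 0.1% casein. cAMP in lysates measured by AlphaScreen; EC50 from 4-parameter logistic fit.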

[3] = biological target: T2, human amylin receptor 3 (hAMYR3), hCTR2 co-expressed with hRAMP3 (Homo sapiens, UniProt O60896+P30988); experiment: hAMYR3 cAMP assay (AlphaScreen) in COS7 cells; type: cell-based; details: cAMP induction, COS7 cells expressing hAMYR3; Table 1; read-out: hAMYR3 EC50
T2 construct: expressed in transfected cells
T2 sequence (P30988 25-474): T1 sequence (P30988 25-474)
T2 sequence (O60896 24-148 partner): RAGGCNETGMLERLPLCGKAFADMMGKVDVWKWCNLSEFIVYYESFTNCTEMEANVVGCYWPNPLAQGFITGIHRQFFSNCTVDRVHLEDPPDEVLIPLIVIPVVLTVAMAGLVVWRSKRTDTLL
Outline: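 Stable COS7 clone co-expressing hCTR2 and hRAMP3 was exposed to increasing peptide concentrations in Tyrode buffer (pH 7.4) with 100 µM IBMX and 0.1% casein for 15 min at 37 °C. Lysate cAMP was measured by AlphaScreen; EC50 came from 4-parameter logistic fitting.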

## CC[C@H](C)[C@@H](C(=O)N[C@@H](CC(C)C)C(=O)N[C@@H](CO)C(=O)N[C@@H](CO)C(=O)N[C@H](C(=O)N[C@@H](CCC(=O)O)C(=O)N[C@H](C(=O)NCC(=O)N[C@@H](CO)C(=O)N[C@@H](CC(N)=O)C(=O)N[C@H](C(=O)N1C[C@H](O)C[C@H]1C(N)=O)[C@@H](C)O)C(C)C)[C@@H](C)O)N(C)C(=O)[C@H](C)NC(=O)CN(C)C(=O)[C@H](Cc1ccccc1)NC(=O)[C@H](CO)NC(=O)[C@H](CO)NC(=O)[C@H](CCCNC(=N)N)NC(=O)[C@H](CC(N)=O)NC(=O)[C@H](CC(C)C)NC(=O)[C@H](Cc1ccccc1)NC(=O)[C@H](Cc1c[nH]cn1)NC(=O)[C@H](C)NC(=O)[C@H](CC(C)C)NC(=O)[C@H](CCCNC(=N)N)NC(=O)[C@H](CCC(=O)O)NC(=O)[C@@H](NC(=O)[C@H](C)NC(=O)[C@@H]1CSSC[C@H](NC(=O)[C@H](CCCNC(=N)N)NC(=O)CC[C@H](NC(=O)CCCCCCCCCCCCCCCCCCC(=O)O)C(=O)O)C(=O)NCC(=O)N[C@@H]([C@@H](C)O)C(=O)N[C@@H](C)C(=O)N[C@@H]([C@@H](C)O)C(=O)N1)[C@@H](C)O [Compound 6, [19CD]-isoGlu-R-C( )-GTAT-C( )-ATERLAHFLNRSSF-Gly(Me)-A-Ile(Me)-LSSTEVGSNT-Hyp-NH2] ({C20 diacid-γGlu}-RCGTATCATERLAHFLNRSSF[Sar]A[NMeI]LSSTEVGSNT[Hyp]-NH2; disulfide 2-7)
[1]
  Fibrillation pH 4.0 (Ac): FND
  Fibrillation pH 7.0 (His): FND
  Fibrillation pH 7.0 (Phos.): FND
[2]
  pEC50: 10.11
[3]
  pEC50: 9.66

## CC[C@H](C)[C@@H](C(=O)N[C@@H](CC(C)C)C(=O)N[C@@H](CO)C(=O)N[C@@H](CO)C(=O)N[C@H](C(=O)N[C@@H](CCC(=O)O)C(=O)N[C@H](C(=O)NCC(=O)N[C@@H](CO)C(=O)N[C@@H](CC(N)=O)C(=O)N[C@H](C(=O)N1C[C@H](O)C[C@H]1C(N)=O)[C@@H](C)O)C(C)C)[C@@H](C)O)N(C)C(=O)[C@H](C)NC(=O)CN(C)C(=O)[C@H](Cc1ccccc1)NC(=O)[C@H](CO)NC(=O)[C@H](CO)NC(=O)[C@H](CCCNC(=N)N)NC(=O)[C@H](CCC(N)=O)NC(=O)[C@H](CC(C)C)NC(=O)[C@H](Cc1ccccc1)NC(=O)[C@H](Cc1c[nH]cn1)NC(=O)[C@H](C)NC(=O)[C@H](CC(C)C)NC(=O)[C@H](CCCNC(=N)N)NC(=O)[C@H](CCC(=O)O)NC(=O)[C@@H](NC(=O)[C@H](C)NC(=O)[C@@H]1CSSC[C@H](NC(=O)[C@H](CCCNC(=N)N)NC(=O)CC[C@H](NC(=O)CCCCCCCCCCCCCCCCCCC(=O)O)C(=O)O)C(=O)NCC(=O)N[C@@H]([C@@H](C)O)C(=O)N[C@@H](C)C(=O)N[C@@H]([C@@H](C)O)C(=O)N1)[C@@H](C)O [Compound 7, [19CD]-isoGlu-R-C( )-GTAT-C( )-ATERLAHFLQRSSF-Gly(Me)-A-Ile(Me)-LSSTEVGSNT-Hyp-NH2] ({C20 diacid-γGlu}-RCGTATCATERLAHFLQRSSF[Sar]A[NMeI]LSSTEVGSNT[Hyp]-NH2; disulfide 2-7)
[1]
  Fibrillation pH 4.0 (Ac): FND
  Fibrillation pH 7.0 (His): FND
  Fibrillation pH 7.0 (Phos.): FND
[2]
  pEC50: 10.06

## CC[C@H](C)[C@@H](C(=O)N[C@@H](CC(C)C)C(=O)N[C@@H](CO)C(=O)N[C@@H](CO)C(=O)N[C@H](C(=O)N[C@@H](CCC(=O)O)C(=O)N[C@H](C(=O)NCC(=O)N[C@@H](CO)C(=O)N[C@@H](CC(N)=O)C(=O)N[C@H](C(=O)N1CCC[C@H]1C(N)=O)[C@@H](C)O)C(C)C)[C@@H](C)O)N(C)C(=O)[C@H](C)NC(=O)CN(C)C(=O)[C@H](Cc1ccccc1)NC(=O)[C@H](CO)NC(=O)[C@H](CO)NC(=O)[C@H](CCCNC(=N)N)NC(=O)[C@H](Cc1c[nH]cn1)NC(=O)[C@H](CC(C)C)NC(=O)[C@H](Cc1ccccc1)NC(=O)[C@H](Cc1c[nH]cn1)NC(=O)[C@H](C)NC(=O)[C@H](CC(C)C)NC(=O)[C@H](CCCNC(=N)N)NC(=O)[C@H](CCC(=O)O)NC(=O)[C@@H](NC(=O)[C@H](C)NC(=O)[C@@H]1CSSC[C@H](NC(=O)[C@H](CCCNC(=N)N)NC(=O)CC[C@H](NC(=O)CCCCCCCCCCCCCCCCCCC(=O)O)C(=O)O)C(=O)NCC(=O)N[C@@H]([C@@H](C)O)C(=O)N[C@@H](C)C(=O)N[C@@H]([C@@H](C)O)C(=O)N1)[C@@H](C)O [Compound 15, [19CD]-isoGlu-R-C( )-GTAT-C( )-ATERLAHFLHRSSF-Gly(Me)-A-Ile(Me)-LSSTEVGSNTP-NH2] ({C20 diacid-γGlu}-RCGTATCATERLAHFLHRSSF[Sar]A[NMeI]LSSTEVGSNTP-NH2; disulfide 2-7)
[1]
  Fibrillation pH 4.0 (Ac): FND
  Fibrillation pH 7.0 (His): FD
  Fibrillation pH 7.0 (Phos.): FND
[2]
  pEC50: 10.36
[3]
  pEC50: 10.10

## CC[C@H](C)[C@@H](C(=O)N[C@@H](CC(C)C)C(=O)N[C@@H](CO)C(=O)N[C@@H](CO)C(=O)N[C@H](C(=O)N[C@@H](CCC(=O)O)C(=O)N[C@H](C(=O)NCC(=O)N[C@@H](CO)C(=O)N[C@@H](CO)C(=O)N[C@H](C(=O)N1C[C@H](O)C[C@H]1C(N)=O)[C@@H](C)O)C(C)C)[C@@H](C)O)N(C)C(=O)[C@H](C)NC(=O)CN(C)C(=O)[C@H](Cc1ccccc1)NC(=O)[C@H](CO)NC(=O)[C@H](CO)NC(=O)[C@H](CCCNC(=N)N)NC(=O)[C@H](CCC(N)=O)NC(=O)[C@H](CC(C)C)NC(=O)[C@H](Cc1ccccc1)NC(=O)[C@H](Cc1c[nH]cn1)NC(=O)[C@H](C)NC(=O)[C@H](CC(C)C)NC(=O)[C@H](CCCNC(=N)N)NC(=O)[C@H](CCC(=O)O)NC(=O)[C@@H](NC(=O)[C@H](C)NC(=O)[C@@H]1CSSC[C@H](NC(=O)[C@H](CCCNC(=N)N)NC(=O)CC[C@H](NC(=O)CCCCCCCCCCCCCCCCCCC(=O)O)C(=O)O)C(=O)NCC(=O)N[C@@H]([C@@H](C)O)C(=O)N[C@@H](C)C(=O)N[C@@H]([C@@H](C)O)C(=O)N1)[C@@H](C)O [Compound 28, [19CD]-isoGlu-R-C( )-GTAT-C( )-ATERLAHFLQRSSF-Gly(Me)-A-Ile(Me)-LSSTEVGSST-Hyp-NH2] ({C20 diacid-γGlu}-RCGTATCATERLAHFLQRSSF[Sar]A[NMeI]LSSTEVGSST[Hyp]-NH2; disulfide 2-7)
[1]
  Fibrillation pH 4.0 (Ac): FND
  Fibrillation pH 7.0 (His): FND
  Fibrillation pH 7.0 (Phos.): FND
[2]
  pEC50: 9.96
[3]
  pEC50: 9.89

## CC[C@H](C)[C@@H](C(=O)N[C@@H](CC(C)C)C(=O)N[C@@H](CO)C(=O)N[C@@H](CO)C(=O)N[C@H](C(=O)N[C@@H](CCC(=O)O)C(=O)N[C@H](C(=O)NCC(=O)N[C@@H](CO)C(=O)N[C@@H](CO)C(=O)N[C@H](C(=O)N1CCC[C@H]1C(N)=O)[C@@H](C)O)C(C)C)[C@@H](C)O)N(C)C(=O)[C@H](C)NC(=O)CN(C)C(=O)[C@H](Cc1ccccc1)NC(=O)[C@H](CO)NC(=O)[C@H](CO)NC(=O)[C@H](CCCNC(=N)N)NC(=O)[C@H](CCC(N)=O)NC(=O)[C@H](CC(C)C)NC(=O)[C@H](Cc1ccccc1)NC(=O)[C@H](Cc1c[nH]cn1)NC(=O)[C@H](C)NC(=O)[C@H](CC(C)C)NC(=O)[C@H](CCCNC(=N)N)NC(=O)[C@H](CCC(=O)O)NC(=O)[C@@H](NC(=O)[C@H](C)NC(=O)[C@@H]1CSSC[C@H](NC(=O)[C@H](CCCNC(=N)N)NC(=O)CC[C@H](NC(=O)CCCCCCCCCCCCCCCCCCC(=O)O)C(=O)O)C(=O)NCC(=O)N[C@@H]([C@@H](C)O)C(=O)N[C@@H](C)C(=O)N[C@@H]([C@@H](C)O)C(=O)N1)[C@@H](C)O [Compound 34, [19CD]-isoGlu-R-C( )-GTAT-C( )-ATERLAHFLQRSSF-Gly(Me)-A-Ile(Me)-LSSTEVGSSTP-NH2] ({C20 diacid-γGlu}-RCGTATCATERLAHFLQRSSF[Sar]A[NMeI]LSSTEVGSSTP-NH2; disulfide 2-7)
[1]
  Fibrillation pH 4.0 (Ac): FND
  Fibrillation pH 7.0 (His): FND
  Fibrillation pH 7.0 (Phos.): FND
[2]
  pEC50: 10.05
[3]
  pEC50: 9.92
